Read-outs that look alike come from different tables or passages of the source.
Columns and labels:
[1] = target: T1, LTA4-h (Homo sapiens, UniProt P09960); test: peptidase (aminopeptidase) assay; assay type: biochemical
T1 sequence (P09960 1-611): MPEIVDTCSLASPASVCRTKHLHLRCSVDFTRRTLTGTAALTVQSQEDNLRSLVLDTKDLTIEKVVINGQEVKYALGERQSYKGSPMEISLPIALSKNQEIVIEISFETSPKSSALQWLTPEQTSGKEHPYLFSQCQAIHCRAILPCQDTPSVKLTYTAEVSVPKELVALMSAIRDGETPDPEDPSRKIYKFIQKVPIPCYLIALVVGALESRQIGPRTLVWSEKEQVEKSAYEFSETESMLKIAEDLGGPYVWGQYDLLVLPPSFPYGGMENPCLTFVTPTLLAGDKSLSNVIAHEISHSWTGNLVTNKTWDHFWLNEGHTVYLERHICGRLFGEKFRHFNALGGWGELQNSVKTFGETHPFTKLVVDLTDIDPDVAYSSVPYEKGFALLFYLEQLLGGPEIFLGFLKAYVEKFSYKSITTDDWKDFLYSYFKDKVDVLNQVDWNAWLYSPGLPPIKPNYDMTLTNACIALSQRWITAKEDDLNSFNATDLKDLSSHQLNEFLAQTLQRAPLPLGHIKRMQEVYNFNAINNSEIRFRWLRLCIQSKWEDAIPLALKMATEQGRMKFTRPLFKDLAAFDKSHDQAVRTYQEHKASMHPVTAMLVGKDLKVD
Description: Since LTA4-h hydrolase is grouped with the M1 family of zinc metalloproteases (see, Rudberg, P. C. et al., J. Biol. Chem. 2002, Vol. 277, page 1398-1404), the compounds of the invention can be tested in the standard hydrolase and peptidase assay to determine the compounds' kinetic constants for binding to LTA4-h hydrolase and for inhibiting LTB4 synthesis (see Askonas, L. J., et al., The Journal of Pharmacology and Experimental Therapeutics 2002, 300(2): 577-582; Penning, T. D., J. Med. Chem. 2000, 43(4): 721-735; Kull, F. et al., The Journal of Biological Chemistry 1999, 274 (49): 34683-34690, the contents of which are expressly incorporated by reference herein).
(§1) The whole blood and aminopeptidase assays were performed as described in Penning et al., J. Med. Chem. 2000, 43, 721-735, and Rudberg et al., J. Biol. Chem. Vol. 279, No. 26, Issue of June 25, pp. 27376-27382, 2004, the contents of each of which are expressly incorporated by reference herein. The hydrolase assay was performed as described in U.S. Pat. No. 7,737,145, the contents of which are expressly incorporated herein.

[2] = target: T2, LTA4-h hydrolase (Homo sapiens, UniProt P09960); test: whole blood assay (WBA); assay type: cell-based
T2 construct: from tissue; host or cells: whole blood
T2 sequence (P09960 1-611): T1 sequence (P09960 1-611)
Description: Compounds of the invention can also be tested for their ability as inhibitors of LTA4-h hydrolase in the whole blood assay using human, mouse, rat or dog whole blood (see Penning, T. D. et al., J. Med. Chem. (2000), 43(4): 721-735 for a description of a human whole blood assay and a mouse whole blood assay, the contents of which are expressly incorporated herein).
as §1, with “Tables 4 to 6 below show the IC50 values for peptidase, hydrolase and whole blood assay (WBA) activity for exemplary compounds encompassed by the invention. The whole” for “The whole”

[3] = target: T1, LTA4-h; test: hydrolase assay (hydrolase-homogeneous time resolved fluorescence); assay type: biochemical
Description: The compounds of the invention can be tested for their ability to inhibit LTA4-h by various known assays and by assays described herein. For example, the compounds can be tested for their ability to inhibit LTA4-h activity by assaying the compounds in the hydrolase-homogeneous time resolved fluoroescence assay. This assay, which is a two-step assay, measures the hydrolysis of […] to LTB4 by analyzing the amount of LTB4 produced. The first step involves the enzymatic conversion of […] to LTB4 and the second step involves the quantification of the […] with a homogeneous time resolved fluoroescence assay.
as §1, with “Tables 4 to 6 below show the IC50 values for peptidase, hydrolase and whole blood assay (WBA) activity for exemplary compounds encompassed by the invention. The whole” for “The whole”

[4] = prefix 'r' not defined, read-out: IC50 WBA, second value given with prefix 'r'

CN(Cc1ccc(C(=O)O)cc1)c1ccc(CNCc2ccc(Oc3ccc(Cl)cc3)cc2)cn1 [Compound 1]
IC50 [1]: 490 nM
IC50 ([2]; read-out: IC50 WBA): 210 nM
IC50 [3]: 280 nM

O=C(O)C1CCN(c2ccc(CNCc3ccc(Oc4ccc(Cl)cc4)cc3)cn2)CC1 [Compound 2]
IC50 [1]: 68 nM
IC50 [2, 4]: 360 nM
IC50 ([2]; read-out: IC50 WBA): 730 nM
IC50 [3]: 69 nM

O=C(O)c1ccc(Oc2ncccc2CNCc2ccc(Oc3ccc(Cl)cc3)cc2)cc1 [Compound 3]
IC50 [1]: 21 nM
IC50 [2, 4]: 420 nM
IC50 ([2]; read-out: IC50 WBA): 800 nM
IC50 [3]: 100 nM

CN(Cc1ccc(Oc2ccc(Cl)cc2)cc1)Cc1ccc(Oc2ccc(C(=O)O)cc2)nc1 [Compound 4]
IC50 [1]: 300 nM
IC50 ([2]; read-out: IC50 WBA): 2100 nM
inhibition at 1 µM ([3]; at 1 uM): 47%

CN(Cc1ccc(Oc2ccc(Cl)cc2)cc1)Cc1ccc(N2CCC(C(=O)O)CC2)nc1 [Compound 5]
IC50 [1]: 45 nM
IC50 ([2]; read-out: IC50 WBA): 570 nM
IC50 [3]: 43 nM

CCOC(=O)c1ccc(Oc2ncccc2CNCc2ccc(Oc3ccc(Cl)cc3)cc2)cc1 [Compound 6]
inhibition at 1 µM [1]: 18%

CCOC(=O)c1ccc(Oc2ncccc2CN(C)Cc2ccc(Oc3ccc(Cl)cc3)cc2)cc1 [Compound 7]
inhibition at 1 µM [1]: 11%

CN(Cc1ccc(Oc2ccc(Cl)cc2)cc1)Cc1cccnc1Oc1ccc(C(=O)O)cc1 [Compound 8]
IC50 [1]: 78 nM
IC50 ([2]; read-out: IC50 WBA): 290 nM
IC50 [3]: 50 nM

CCOC(=O)c1ccc(Oc2ncccc2CNCc2ccc(Oc3ccc(-c4ncco4)cc3)cc2)cc1 [Compound 9]
inhibition at 1 µM [1]: 45%

O=C(O)c1ccc(Oc2ncccc2CNCc2ccc(Oc3ccc(-c4ncco4)cc3)cc2)cc1 [Compound 10]
IC50 [1]: 39 nM
IC50 ([2]; read-out: IC50 WBA): 1900 nM
IC50 [3]: 23 nM

CCOC(=O)c1ccc(Oc2ncccc2CN(C)Cc2ccc(Oc3ccc(-c4ncco4)cc3)cc2)cc1 [Compound 11]
inhibition at 1 µM [1]: 17%

CN(Cc1ccc(Oc2ccc(-c3ncco3)cc2)cc1)Cc1cccnc1Oc1ccc(C(=O)O)cc1 [Compound 12]
IC50 [1]: 12 nM
IC50 ([2]; read-out: IC50 WBA): 360 nM
IC50 [3]: 33 nM

O=C(O)c1cccc(Oc2ncccc2CNCc2ccc(Oc3ccc(-c4ncco4)cc3)cc2)c1 [Compound 13]
IC50 [1]: 75 nM
IC50 ([2]; read-out: IC50 WBA): 2300 nM
IC50 [3]: 1400 nM

COc1cc(C(=O)O)ccc1Oc1ncccc1CNCc1ccc(Oc2ccc(-c3ncco3)cc2)cc1 [Compound 14]
IC50 [1]: 61 nM
IC50 ([2]; read-out: IC50 WBA): 1500 nM
IC50 [3]: 350 nM

COCCN(Cc1ccc(Oc2ccc(Cl)cc2)cc1)Cc1ccccc1Oc1cccc(C(=O)O)c1 [Compound 15]
IC50 [1]: 470 nM
IC50 ([2]; read-out: IC50 WBA): 1950 nM
inhibition at 3 µM ([3]; at 3 uM): 18%

Cc1c(C(=O)O)ncn1-c1ccc(CNCc2ccc(Oc3ccc(Cl)cc3)cc2)cn1 [Compound 16]
IC50 [1]: 81 nM
IC50 ([2]; read-out: IC50 WBA): 880 nM
IC50 [3]: 3 nM

O=C(O)C1CCCN(c2ccc(CNCCc3ccc(Oc4nc5ccccc5s4)cc3)cc2)C1 (stereo not shown) [Compound 17]
IC50 [1]: 54 nM
IC50 [3]: 5 nM

O=C(O)C1CCCN(c2ccc(CNCCc3ccc(Oc4ncccn4)cc3)cc2)C1 (stereo not shown) [Compound 18]
IC50 [1]: 16 nM
IC50 [3]: 68 nM

O=C(O)C1CCCN(c2ccc(CNCc3ccc(Oc4ccc(Cl)cc4)cc3)cc2F)C1 (stereo not shown) [Compound 19]
IC50 [1]: 45 nM

CN(CC(=O)O)c1ccc(CNCc2ccc(Oc3ccc(Cl)cc3)cc2)cn1 [Compound 20]
IC50 [1]: 10 nM

O=C(O)CCNc1ccc(CNCc2ccc(Oc3ccc(Cl)cc3)cc2)cn1 [Compound 21]
IC50 [1]: 2 nM

Source: US9822106B2, “Inhibitors of leukotriene A4 hydrolase” (Celtaxsys, Inc., priority 2013, dated 2017)
